# Tests used:
# Assay in all cases: Test E greenhouse herbicide test, pre- and postemergence
# Format in all cases: in vivo
# Details in all cases: Preemergence
# [1] = test system: beggarticks (hairy beggarticks, Bidens pilosa)
# Source text: (§1) Seeds of plant species selected from corn (Zea mays), soybean (Glycine max), velvetleaf (Abutilon theophrasti), lambsquarters (Chenopodium album), wild poinsettia (Euphorbia heterophylla), pigweed, palmer (palmer pigweed, Amaranthus palmeri), waterhemp (common waterhemp, Amaranthus rudis), surinam grass (Brachiaria decumbens), crabgrass, large (large crabgrass, Digitaria sanguinalis), crabgrass, Brazilian (Brazilian crabgrass, Digitaria horizontalis), panicum, fall (fall panicum, Panicum dichotomiflorum), foxtail, giant (giant foxtail, Setaria faberii), foxtail, green (green foxtail, Setaria viridis), goosegrass (Eleusine indica), johnsongrass (Sorghum halepense), ragweed (common ragweed, Ambrosia elatior), barnyardgrass (Echinochloa crus-galli), sandbur (southem sandbur, Cenchrus echinatus), arrowleaf sida (Sida rhombifolia), Italian ryegrass (Lolium multiflorum), dayflower (Virginia (VA) dayflower, Commelina virginica), field bindweed (Convolvulus arvensis), momingglory (Ipomoea coccinea), nightshade (eastern black nightshade, Solanum ptycanthum), kochia (Kochia scoparia), nutsedge, yellow (yellow nutsedge, Cyperus esculentus), horseweed (Conyza canadensis), and beggarticks (hairy beggarticks, Bidens pilosa), were planted into a silt loam soil and treated preemergence with test chemicals formulated in a non-phytotoxic solvent mixture which included a surfactant.
# (§2) At the same time, plants from these crop and weed species and also waterhemp_RES1, (ALS & Triazine resistant common waterhemp, Amaranthus rudis), and waterhemp_RES2, (ALS & HPPD resistant common waterhemp, Amaranthus rudis) were planted in pots containing Redi-Earth® planting medium (Scotts Company, 14111 Scottslawn Road, Marysville, Ohio 43041) comprising spaghnum peat moss, vermiculite, wetting agent and starter nutrients were treated with postemergence applications of test chemicals formulated in the same manner. Plants ranged in height from 2 to 18 cm for postemergence treatments (1- to 4-leaf stage). Treated plants and controls were maintained in a greenhouse for 14 to 21 d, after which time all species were compared to controls and visually evaluated. Plant response ratings, summarized in Table E, are based on a scale of 0 to 100 where 0 is no effect and 100 is complete control. A dash (-) response means no test result.
# [2] = test system: crabgrass, Brazilian (Brazilian crabgrass, Digitaria horizontalis)
# Source text: as §1, §2
# [3] = test system: crabgrass, large (large crabgrass, Digitaria sanguinalis)
# Source text: as §1, §2
# [4] = test system: field bindweed (Convolvulus arvensis)
# Source text: as §1, §2
# [5] = test system: foxtail, giant (giant foxtail, Setaria faberii)
# Source text: as §1, §2
# [6] = test system: goosegrass (Eleusine indica)
# Source text: as §1, §2
# [7] = test system: horseweed (Conyza canadensis)
# Source text: as §1, §2
# [8] = test system: kochia (Kochia scoparia)
# Source text: as §1, §2
# [9] = test system: nightshade (eastern black nightshade, Solanum ptycanthum)
# Source text: as §1, §2
# [10] = test system: panicum, fall (fall panicum, Panicum dichotomiflorum)
# Source text: as §1, §2
# [11] = test system: ragweed (common ragweed, Ambrosia elatior)
# Source text: as §1, §2
# [12] = test system: sandbur (southem sandbur, Cenchrus echinatus)
# Source text: as §1, §2
# [13] = test system: surinam grass (Brachiaria decumbens)
# Source text: as §1, §2
# [14] = test system: waterhemp (common waterhemp, Amaranthus rudis)
# Source text: as §1, §2
# [15] = 62 g ai/ha, scale 0 to 100 (0 no effect, 100 complete control)
# [16] = 125 g ai/ha, scale 0 to 100 (0 no effect, 100 complete control)
# [17] = 16 g ai/ha, scale 0 to 100, 0 no effect, 100 complete control
# [18] = 31 g ai/ha, scale 0 to 100, 0 no effect, 100 complete control
structure (smiles),measurement,setting,value
COC(=O)Oc1c(C)nn(C)c(=O)c1-c1c(C)sc2ccc(C)cc12 [Compound 80],"Plant response rating, Beggarticks",[1]; [15],100
same,"Plant response rating, Beggarticks",[1]; [16],100
same,"Plant response rating, Beggarticks",[1]; [17],100
same,"Plant response rating, Beggarticks",[1]; [18],85
same,"Plant response rating, Crabgrass, Brazil",[2]; [15],90
same,"Plant response rating, Crabgrass, Brazil",[2]; [16],100
same,"Plant response rating, Crabgrass, Brazil",[2]; [17],65
same,"Plant response rating, Crabgrass, Brazil",[2]; [18],75
same,"Plant response rating, Crabgrass, Large",[3]; [15],35
same,"Plant response rating, Crabgrass, Large",[3]; [16],35
same,"Plant response rating, Crabgrass, Large",[3]; [17],0
same,"Plant response rating, Crabgrass, Large",[3]; [18],0
same,"Plant response rating, Field Bindweed",[4]; [15],70
same,"Plant response rating, Field Bindweed",[4]; [16],100
same,"Plant response rating, Field Bindweed",[4]; [17],20
same,"Plant response rating, Field Bindweed",[4]; [18],25
same,"Plant response rating, Foxtail, Giant",[5]; [15],80
same,"Plant response rating, Foxtail, Giant",[5]; [16],85
same,"Plant response rating, Foxtail, Giant",[5]; [17],0
same,"Plant response rating, Foxtail, Giant",[5]; [18],50
same,"Plant response rating, Goosegrass",[6]; [15],30
same,"Plant response rating, Goosegrass",[6]; [16],20
same,"Plant response rating, Goosegrass",[6]; [17],0
same,"Plant response rating, Goosegrass",[6]; [18],0
same,"Plant response rating, Horseweed",[7]; [15],100
same,"Plant response rating, Horseweed",[7]; [16],100
same,"Plant response rating, Horseweed",[7]; [17],100
same,"Plant response rating, Horseweed",[7]; [18],100
same,"Plant response rating, Kochia",[8]; [15],100
same,"Plant response rating, Kochia",[8]; [16],100
same,"Plant response rating, Kochia",[8]; [17],25
same,"Plant response rating, Kochia",[8]; [18],90
same,"Plant response rating, Nightshade",[9]; [15],100
same,"Plant response rating, Nightshade",[9]; [16],98
same,"Plant response rating, Nightshade",[9]; [17],75
same,"Plant response rating, Nightshade",[9]; [18],75
same,"Plant response rating, Panicum, Fall",[10]; [15],95
same,"Plant response rating, Panicum, Fall",[10]; [16],98
same,"Plant response rating, Panicum, Fall",[10]; [17],80
same,"Plant response rating, Panicum, Fall",[10]; [18],90
same,"Plant response rating, Ragweed",[11]; [15],100
same,"Plant response rating, Ragweed",[11]; [16],100
same,"Plant response rating, Ragweed",[11]; [17],70
same,"Plant response rating, Ragweed",[11]; [18],70
same,"Plant response rating, Sandbur",[12]; [15],70
same,"Plant response rating, Sandbur",[12]; [16],75
same,"Plant response rating, Sandbur",[12]; [17],0
same,"Plant response rating, Sandbur",[12]; [18],65
same,"Plant response rating, Surinam Grass",[13]; [15],20
same,"Plant response rating, Surinam Grass",[13]; [16],75
same,"Plant response rating, Surinam Grass",[13]; [17],0
same,"Plant response rating, Surinam Grass",[13]; [18],10
same,"Plant response rating, Waterhemp",[14]; [15],100
same,"Plant response rating, Waterhemp",[14]; [16],100
same,"Plant response rating, Waterhemp",[14]; [17],0
same,"Plant response rating, Waterhemp",[14]; [18],70

# Reference: US10597388B2, “Pyridazinone herbicides” (FMC CORPORATION, priority 2014, dated 2020)
